Results published in patent US8551951B2, “Pharmaceutical preparations and methods for inhibiting tumors” (Aenorasis SA Pharmaceuticals and Medical Devices, priority 2000, dated 2013).
Peptide text beside a SMILES is read from it.

Experiments:
[1] = test system: human prostate cancer cells PC-3; experiment: MTS assay, growth inhibitory effect on PC-3 cells; assay type: cell-based; conditions: for growth inhibition of PC-3 cells (FIG. 10): 72 hours
Text: Cell proliferation was monitored on PC-3 cells using the MTS/PMS (phenazine methosulfate) kit (Promega), which primarily measures mitochondrial activity of live cells. The basic principle of this method involves the fact that the mitochondrial enzymes of the live cells metabolize the MTS/PMS dyes forming a brown colored precipitate which can be measured as optical density (OD) by absorption at 490 nm in a spectrophotometer. Therefore, the OD values are proportional to the number of living cells. In addition, monitoring of cell morphology was also performed. Cell morphology would be indicative of their health status. For example, viable cells would appear adherent and spread out whereas dead cells would be in suspension in the media and would appear granular and round.
PC-3 cells (ATCC, Lot AT06) used in these experiments were at a passage number lower or equal to 70 (n≧70). Cells were seeded in Costar 96 well cell culture flat bottom plates in RPMI supplemented media containing 50 μg/ml of bovine serum albumin (BSA) and 0.1 μM FeSO4. Peptide was diluted in the same media. Cells were continuously exposed to the polypeptides of the present invention for 72 hours without changing media. Native PSP94 or rHuPSP94 concentrated two fold were directly added to wells and diluted to 1× in order to minimize cell manipulation and avoid detachment.
Native PSP94, rHuPSP94, polypeptide 22-36 and PB111 polypeptide (scrambled polypeptide) were also included in this experiment as controls. Cell proliferation assay was performed on either PC-3 cells or normal fibroblasts (used here as control) using the MTS/PMS kit (Promega). Four thousand cells (FIGS. 9 and 10) or three thousand (FIG. 11) cells were seeded in Costar 96 well cell culture flat bottom plates in RPMI supplemented media containing 50 μg/ml of bovine serum albumin (BSA) and 0.1 μM FeSO4. In addition, monitoring of cell morphology was also performed.
This assay measures the mitochondrial activity of the live cells. The basic principle of this method involves the fact that the mitochondrial enzymes of the live cells metabolize the MTS/PMS dyes forming a brown colored precipitate which can be measured as optical density (OD) by absorption at 490 nm in a spectrophotometer. Therefore, the OD values are proportional to the number of living cells.
In addition, a visual observation of the cells was also done to check the cell morphology, which could also be indicative of cell growth. The following conditions for MTS assay were used: PC-3 (ATCC, Lot AT06), passage number n≧70, cell line adapted to grow in serum-free OPTI-MEM and in RPMI supplemented with BSA (50 μg/ml) and Ferrous Sulfate (0.1 μM), continuous exposure for up to 72 hours without changing media (i.e., adding PCK3145 at 2× concentration directly to wells and diluting it 1:2 to 1× to minimize cell manipulation and avoid detachment).

PC-3 cells = experiment: DNA fragmentation assay (DNA ladder, apoptosis); assay type: cell-based, human; conditions: for DNA laddering effect: various concentrations
In short: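 PC-3 cells were exposed for 72 h to the polypeptides at various concentrations, PCK3145 at 500 μg/ml in supplemented medium; untreated cells and doxorubicin served as controls. Isolated DNA was run on 1.2% agarose with ethidium bromide, and a DNA ladder was scored as apoptotic fragmentation.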

human PC-3 tumor = experiment: Studies PC3-6 and PC3-12, human PC-3 prostate cancer nude mouse xenograft model; assay type: in vivo, nude mice
Text: Studies PC3-6 and PC3-12 (FIGS. 26-27) are consecutive group experiments designed to characterize the in vivo activity of PCK3145 in the human PC-3 prostate cancer nude mouse xenograft model and to explore relationships between dose, route and schedule of administration and the efficacy parameters of tumor growth (volume).
PC-3 cells harvested in mid-log phase were inoculated at 5×10^6 cells per mice via the subcutaneous route in the mice's back area. Tumors grown from this inoculum were excised at approximately day 32 to 35 post-tumor implantation (p.t.i) when tumor volume reached 200-300 mm^3 (i.e., cu mm). The necrotic tissue was removed and the viable tumor mass cut into small pieces (approximately 1 to 3 mm^3) were implanted SC in the flank region at two opposite sites of the mouse. Treatment with various concentrations of PCK3145 was initiated at day 3 post-tumor implantation (p.t.i) and was continued daily for 21 days. Subcutaneous injections were done below tumor growth sites. Intra-peritoneal injections were performed in the abdominal region. Intra-venous injections were performed via the lateral tail vein. The experiment was terminated 24 hours after the last treatment. Tumor measurements were taken at Days 11, 14, 16, 18, 20, 22 and 24 post-tumor implantation (p.t.i). Tumor volumes were calculated according to formula (a×b^2×0.5), where a—is the length of the long diameter, and b—is the width of the perpendicular small diameter.
Study No: PC3-6 illustrates the efficacy of PCK3145, injected subcutaneously, in tumor growth retardation in Nude mice, which have received PC-3 implants. Mice were separated in different group each receiving various amounts of PCK3145 (SEQ ID NO: 5) or control reagents. The different groups used in these experiments are illustrated in table 6 below. Each group contained 10 mice. Doxorubicin was administered as single bolus intra-venous injection on days 3 and 11 post-tumor implantation (p.t.i).
Study No: PC3-12 illustrates the efficacy of PCK3145 in tumor growth retardation in Nude mice, which have received PC-3 implants. Mice were separated in different group each receiving various amounts of PCK3145 (SEQ ID NO: 5) or control reagents. PCK3145 was injected either through intra-venous or intra-peritoneal route. The different groups used in these experiments are illustrated in table 7 below. Each group contained 9 mice.

| Compound | inhibitory effect on the growth of PC-3 cells ([1]; 0 to 400 μg/ml, tests repeated 5 times) | growth inhibition of PC-3 cells (FIG. 10) [1] | DNA laddering effect (FIG. 7 lane 5) (PC-3 cells; 22.5 μM) | DNA laddering effect (FIG. 7 lane 6) (PC-3 cells; 45 μM) | DNA fragmentation (FIG. 25) (PC-3 cells; 500 μg/ml, 72 hours, supplemented media) | DNA laddering effect (PC-3 cells; 72 hours) | anti-tumor effect on subcutaneous injection at a site distant from tumor (scruff of the neck) (human PC-3 tumor; 10 μg/kg/day and 100 μg/kg/day) | tumor growth (volume), study PC3-6 (human PC-3 tumor; 10 μg/kg/day s.c. below tumor sites, daily for 21 days, p=0.001 to 0.002 vs PBS) | tumor growth (volume), study PC3-12 (human PC-3 tumor; 100 μg/kg/day intra-venous, days 13, 17 and 20) | tumor growth (volume), study PC3-12 (human PC-3 tumor; 10, 500 and 1000 μg/kg/day intra-venous) | tumor growth (volume), study PC3-12 (human PC-3 tumor; 500 and 1000 μg/kg/day intra-venous) | anti-tumor effect in the PC-3 nude mouse xenograft model (human PC-3 tumor; mouse, in vivo) |
| --- | --- | --- | --- | --- | --- | --- | --- | --- | --- | --- | --- | --- |
| C[C@@H](O)[C@H](NC(=O)[C@H](CCC(=O)O)NC(=O)[C@H](Cc1ccc(O)cc1)NC(=O)[C@H](CS)NC(=O)[C@@H](NC(=O)[C@H](CS)NC(=O)[C@@H](NC(=O)[C@H](CCC(=O)O)NC(=O)[C@H](CS)NC(=O)[C@H](CC(N)=O)NC(=O)[C@H](CC(=O)O)NC(=O)[C@@H](NC(=O)[C@H](CCC(N)=O)NC(=O)[C@H](Cc1c[nH]c2ccccc12)NC(=O)[C@@H](N)CCC(=O)O)[C@@H](C)O)[C@@H](C)O)[C@@H](C)O)C(=O)O [PCK3145, EWQTDNCETCTCYET] (H-EWQTDNCETCTCYET-OH; N-terminus and C-terminus assumed) | dose dependent inhibitory effect | significant growth inhibition | DNA laddering effect | DNA laddering effect | resulted in DNA fragmentation | induced a DNA laddering effect characteristic of apoptosis | might not be efficacious enough | significant PC-3 tumor growth retardation | significant tumor growth retardation | No significant anti-tumor effect | trend towards significance |  |
| polypeptide 7-21: PSP94 derived synthetic polypeptide from the amino terminus end, SEQ ID NO: 4 (NEGVPGDSTRKCMDL; Polypeptide 7-21) |  | significant growth inhibition |  |  |  | induced a DNA laddering effect characteristic of apoptosis |  |  |  |  |  | also observed in the PC-3 nude mouse xenograft model |
